Usually IC50 stands for the midpoint of a concentration-inhibition curve. High values mean weaker potency in that assay, low ones greater potency in that assay.

In patent US7282595B2, “Antitumor benzoylsulfonamides” (Eli Lilly and Company, priority 2003, dated 2007) one finds IC50 data, which are given here for 18 compounds.

In one experiment the test system is Human HCT116 colon carcinoma cells. As to the kind of experiment: HCT116 Colon Carcinoma Cell Growth Inhibition. Format: cell-based. Conditions: 72 hr exposure, WST-1 growth fraction. How it is done:
HCT116 Colon Carcinoma Cell Growth Inhibition
Human HCT116 colon carcinoma cells were grown monolayer culture in RPMI 1640 medium supplemented with 10% fetal bovine serum and 1% penicillin-streptomycin (GibcoBRL, Grand Island, N.Y.). HCT116 cells in exponential growth phase were exposed to various concentrations of the test compounds at 37° C. for 72 hr in 5% carbon dioxide/air. After exposure to the agent, the cells were washed with 0.9% phosphate buffered saline. Growth inhibition was determined using WST-1 cell proliferation reagent as described above. The results are expressed as the growth fraction of treated cells compared with control cultures. Representative compounds of the present invention were tested for efficacy against the human colon HCT116 tumor cells.
(Formazan colour is commonly taken as a measure of viable cells.)
In the case of `O=C(NS(=O)(=O)c1ccc2c(c1)OCCO2)c1ccc(Cl)cc1Cl` [Example 23, N-[2,4-dichlorobenzoyl]-2,3-dihydrobenzo[1,4]dioxane-6-sulfonamide], the IC50 was determined as 4.1 µM.

Turning to “N-[2,4-dichlorobenzoyl]-tetrahydrobenzofuran-5-sulfonamide [Example 24]”, the IC50 was determined as 40 µM.

The experiment is the same for the next values; noted with them: Homo sapiens, HCT-116, 72 hr exposure, WST-1 growth fraction.
The compound `O=C(NS(=O)(=O)c1ccc2c(c1)OCO2)c1ccc(Cl)cc1Br` [Example 2, N-[4-chloro-2-bromobenzoyl]-benzo[1,3]dioxole-5-sulfonamide] showed a concentration for half-maximal inhibition (IC50) of 3.9 µM. That is a single-digit micromolar value.

For `Cn1c(S(=O)(=O)NC(=O)c2ccc(Cl)cc2Cl)cc2ccccc21` [Example 31, N-[2,4-dichlorobenzoyl]-1-methyl-indole-2-sulfonamide], the IC50 was determined as 4.6 µM.

`O=C(NS(=O)(=O)c1ccc2c(c1)CCC2=O)c1ccc(Cl)cc1Cl` [Example 29, N-[2,4-dichlorobenzoyl]-1-oxo-indane-5-sulfonamide] returned an IC50 of 26.2 µM.

On to `O=C(NS(=O)(=O)c1ccc2c(c1)OCO2)c1ccc(Br)cc1Br` [Example 6, N-[2,4-dibromobenzoyl]-benzo[1,3]dioxole-5-sulfonamide], for which half-maximal inhibition (IC50) required 4.6 µM.

With `Cc1cc(Cl)ccc1C(=O)NS(=O)(=O)c1ccc2c(c1)CCO2` [Example 1, N-[4-chloro-2-methylbenzoyl]-2,3-dihydrobenzofuran-5-sulfonamide], the IC50 is 9.6 µM. This IC50 lies about 2.1-fold higher than the previous one.

Consider `Cc1cc(Cl)ccc1C(=O)NS(=O)(=O)c1ccc2c(c1)OCO2` [Example 3, N-[4-chloro-2-methylbenzoyl]-benzo[1,3]dioxole-5-sulfonamide], for which the midpoint of inhibition, the IC50, lay at 6.4 µM.

In turn, `O=C(NS(=O)(=O)c1ccc2c(c1)OCO2)c1ccc(Cl)cc1Cl` [Example 25, N-[2,4-dichlorobenzoyl]-benzo[1,3]dioxole-5-sulfonamide] came in with an IC50 of 2.1 µM.

Compound `O=C(NS(=O)(=O)c1ccc2c(c1)OCO2)c1ccc(Br)cc1Cl` [Example 7, N-[4-bromo-2-chlorobenzoyl]-benzo[1,3]dioxole-5-sulfonamide] yielded an IC50 of 13.9 µM.

`CN1CCc2ccc(S(=O)(=O)NC(=O)c3ccc(Cl)cc3Cl)cc21` [Example 26, N-[2,4-dichlorobenzoyl]-1-methyl-2,3-dihydro-1H-indole-6-sulfonamide] registered an IC50 of 10 µM.

Consider `O=C(NS(=O)(=O)c1cc2ccccc2o1)c1ccc(Cl)cc1Cl` [Example 17, N-[2,4-dichlorobenzoyl]-benzofuran-2-sulfonamide], for which the IC50 turned out to be 19.8 µM.

`O=C(NS(=O)(=O)c1ccc2c(c1)CC=C2)c1ccc(Cl)cc1Cl` [Example 27, N-[2,4-dichlorobenzoyl]-3H-indene-5-sulfonamide] displayed an IC50 of 3.2 µM.

`O=C(NS(=O)(=O)c1cc2ccccc2s1)c1ccc(Cl)cc1Cl` [Example 16, N-[2,4-dichlorobenzoyl]-benzo[b]thiophene-2-sulfonamide]: half-maximal inhibition (IC50) required 21.8 µM.

Consider `Cc1cc(Br)ccc1C(=O)NS(=O)(=O)c1ccc2c(c1)OCO2` [Example 4, N-[4-bromo-2-methylbenzoyl]-benzo[1,3]dioxole-5-sulfonamide], for which the IC50 stood at 7.5 µM.

`O=C(NS(=O)(=O)c1ccc2c(c1)CCC2)c1ccc(Cl)cc1Cl` [Example 28, N-[2,4-dichlorobenzoyl]-indane-5-sulfonamide] returned a 50% inhibitory concentration (IC50) of 3.2 µM.

Turning to `O=C(NS(=O)(=O)c1ccc2ncsc2c1)c1ccc(Cl)cc1Cl` [Example 18, N-[2,4-dichlorobenzoyl]-benzothiazole-6-sulfonamide], the IC50 came to 14.2 µM. Compared with the last compound, the IC50 is about 4.4-fold higher.

As to `Cc1ccc(C(=O)NS(=O)(=O)c2ccc3c(c2)OCO3)c(Br)c1` [Example 5, N-[4-methyl-2-bromobenzoyl]-benzo[1,3]dioxole-5-sulfonamide], the concentration for half-maximal inhibition (IC50) came to 8.5 µM.
